The target of the assay is USP7 (Homo sapiens (Human), UniProt Q93009). Briefly: USP7 inhibition assay with Ub-Rho 110 substrate (fluorescence progress curves). Type of assay: biochemical. The conditions noted are these: for inhibition at 100 µM: 100 μM compound, 1 nM USP7, 200 nM Ub-Rho 110, 3% DMSO, triplicate; for IC50: 11 compound concentrations, two-fold serial dilutions. As for the experimental part: Each assay was measured in triplicate. […] All reactions contained a final concentration of 3% DMSO. […] The percent inhibition was calculated using Equation (1).
The assay design was identical to as described above. The percent inhibition was calculated using Equation 1 and fit to Equation 2 by use of the Enzyme Kinetics Module of Sigma Plot (v13:Systat Software Inc.), to determine the IC50 value.

The structures appear in SMILES notation.

USP7, sequence (Q93009 whole entry): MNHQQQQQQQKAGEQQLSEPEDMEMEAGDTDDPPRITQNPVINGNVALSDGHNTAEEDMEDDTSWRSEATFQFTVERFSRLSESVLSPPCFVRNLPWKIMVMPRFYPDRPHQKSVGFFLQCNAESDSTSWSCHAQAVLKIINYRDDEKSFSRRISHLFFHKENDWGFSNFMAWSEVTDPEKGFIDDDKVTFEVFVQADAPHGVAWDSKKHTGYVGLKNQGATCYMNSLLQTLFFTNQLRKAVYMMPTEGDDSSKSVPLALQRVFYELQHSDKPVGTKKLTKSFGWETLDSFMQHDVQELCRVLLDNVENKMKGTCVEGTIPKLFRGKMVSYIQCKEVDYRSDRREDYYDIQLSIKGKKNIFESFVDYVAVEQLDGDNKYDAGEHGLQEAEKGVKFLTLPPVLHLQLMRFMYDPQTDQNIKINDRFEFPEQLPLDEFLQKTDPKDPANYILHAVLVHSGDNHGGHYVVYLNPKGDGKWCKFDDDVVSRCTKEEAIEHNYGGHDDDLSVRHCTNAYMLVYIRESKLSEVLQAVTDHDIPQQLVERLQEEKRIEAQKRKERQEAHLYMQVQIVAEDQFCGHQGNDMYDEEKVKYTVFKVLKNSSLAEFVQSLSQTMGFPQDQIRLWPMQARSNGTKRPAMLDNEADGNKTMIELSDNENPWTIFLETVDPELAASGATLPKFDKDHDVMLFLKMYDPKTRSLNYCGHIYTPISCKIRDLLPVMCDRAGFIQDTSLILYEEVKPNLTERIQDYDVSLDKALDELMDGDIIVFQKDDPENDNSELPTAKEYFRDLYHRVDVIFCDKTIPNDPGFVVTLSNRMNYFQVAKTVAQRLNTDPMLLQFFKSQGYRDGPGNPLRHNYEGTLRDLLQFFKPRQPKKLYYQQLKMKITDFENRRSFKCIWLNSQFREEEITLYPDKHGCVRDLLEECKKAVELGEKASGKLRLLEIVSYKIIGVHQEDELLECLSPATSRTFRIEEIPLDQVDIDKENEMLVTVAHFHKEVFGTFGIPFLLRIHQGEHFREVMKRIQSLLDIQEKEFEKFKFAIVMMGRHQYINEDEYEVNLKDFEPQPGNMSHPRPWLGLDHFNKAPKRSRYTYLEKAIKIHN

A word on the inhibition: it is how much of the control response was suppressed. A higher inhibition goes with strong suppression. As usually defined, the IC50 is the point on the concentration scale where inhibition reaches its midpoint. Read a low IC50 as higher potency. With `COc1ccc(C2C(C#N)=C(N)Oc3n[nH]c(-c4cccs4)c32)cc1Cl` (racemic) [Compound 6t, 6-Amino-4-(3-chloro-4-methoxyphenyl)-3-(thiophen-2-yl)-2,4-dihydropyrano [2,3-c]pyrazole-5-carbonitrile], the inhibition at 100 µM was 55 ± 3%. This molecule also showed an IC50 (1 nM USP7, 200 nM Ub-Rho 110) of 7 ± 2 µM.
In the same order, the values of `C#CCOc1ccc(C2C(C#N)=C(N)Oc3n[nH]c(-c4cccs4)c32)cc1Br` (racemic) [Compound 6n, 6-Amino-4-(3-bromo-4-(prop-2-yn-1-yloxy)phenyl)-3-(thiophen-2-yl)-2,4-dihydropyrano[2,3-c]pyrazole-5-carbonitrile] are 84 ± 2% and 4.5 ± 0.6 µM.
For `COc1ccc(C2C(C#N)=C(N)Oc3n[nH]c(-c4ccn(C)c4)c32)cc1I` (racemic) [Compound 7m, 6-Amino-4-(3-iodo-4-methoxyphenyl)-3-(1-methyl-1H-pyrrol-3-yl)-2,4-dihydropyrano[2,3-c]pyrazole-5-carbonitrile], in that order: 89 ± 1% and 1.31 ± 0.06 µM.
`COc1ccc(C2C(C#N)=C(N)Oc3n[nH]c(-c4ccsc4)c32)cc1I` (racemic) [Compound 7b, 6-Amino-4-(3-iodo-4-methoxyphenyl)-3-(thiophen-3-yl)-2,4-dihydropyrano [2,3-c]pyrazole-5-carbonitrile] gave an inhibition at 100 µM of 71 ± 3%. Under “1 nM USP7, 200 nM Ub-Rho 110”, this molecule had an IC50 of 5.6 ± 0.7 µM.
For `COc1ccc(C2C(C#N)=C(N)Oc3n[nH]c(-c4cccnc4)c32)cc1Br` (racemic) [Compound 7e, 6-Amino-4-(3-bromo-4-methoxyphenyl)-3-(pyridin-3-yl)-2,4-dihydropyrano [2,3-c]pyrazole-5-carbonitrile], in that order: 82 ± 9% and 24 ± 5 µM.
`COc1ccc(C2C(C#N)=COc3n[nH]c(-c4cccs4)c32)cc1Br` (stereo not shown) [Compound 15, 4-(3-Bromo-4-methoxyphenyl)-3-(thiophen-2-yl)-2,4-dihydropyrano [2,3-c]pyrazole-5-carbonitrile]: 100 µM produced 0% inhibition.
As for `COc1ccc(C2C(C#N)=C(N)Oc3nn(C(C)=O)c(-c4cccs4)c32)cc1Br` (stereo not shown) [Compound 14, 2-Acetyl-6-amino-4-(3-bromo-4-methoxyphenyl)-3-(thiophen-2-yl)-2,4-dihydropyrano[2,3-c]pyrazole-5-carbonitrile], the inhibition at 100 µM is 85 ± 2%. For the setting “1 nM USP7, 200 nM Ub-Rho 110”, this molecule registered an IC50 of 0.53 ± 0.05 µM.
With `COc1ccc(C2C(C#N)=C(N)Oc3n[nH]c(-c4ccccn4)c32)cc1I` (racemic) [Compound 7d, 6-Amino-4-(3-iodo-4-methoxyphenyl)-3-(pyridin-2-yl)-2,4-dihydropyrano [2,3-c]pyrazole-5-carbonitrile], for the setting “1 nM USP7, 200 nM Ub-Rho 110”, it took 4.4 µM to reach half-maximal inhibition (IC50). This molecule also registered an inhibition at 150 µM (tested at 150 μM compound, 1 nM USP7, 200 nM Ub-Rho 110) of 89 ± 2%.
`N#CC1=C(N)Oc2n[nH]c(-c3cccs3)c2C1c1cc(Br)c(OCc2ccccc2)c(Br)c1` (stereo not shown) [Compound 6l, 6-amino-4-(4-(benzyloxy)-3,5-dibromophenyl)-3-(thiophen-2-yl)-2,4-dihydropyrano[2,3-c]pyrazole-5-carbonitrile] registered an inhibition at 100 µM of 26 ± 3%.
